According to patent publication US4170642A, “Derivatives of kanamycin A” (Zaidan Hojin Biseibutsu Kagaku Kenkyu Kai, priority 1974, dated 1979):
Values after ≈ are worked out from the molar mass of the structure shown.

Assays:
Format in all cases: cell-based
[1] = tested on: Escherichia coli JR66/W677; assay: MIC by serial dilution method on nutrient agar; details: for MIC: nutrient agar, 37° C
Description: (§1) The minimum inhibitory concentrations (MIC) of 1-AHB-6'-MKM and 1-AHB-6'-EKM against various micro-organisms were determined by the serial dilution method using a nutrient agar medium at 37° C.

[2] = tested on: Escherichia coli K-12 ML1410; assay: MIC by serial dilution method on nutrient agar; details: K12ML1410, 37° C
Description: as §1

[3] = tested on: Escherichia coli K-12 ML1629; assay: MIC by serial dilution method on nutrient agar; details: for MIC: K12ML1629, nutrient agar, 37° C
Description: as §1

[4] = tested on: Escherichia coli K-12 ML1630; assay: MIC by serial dilution method on nutrient agar; details: for MIC: K12ML1630, nutrient agar, 37° C
Description: as §1

Escherichia coli K-12 R5 = assay: MIC by serial dilution method on nutrient agar; details: K12R5
Description: as §1

Escherichia coli K-12 = assay: MIC by serial dilution method on nutrient agar; details: K12, 37° C
Description: as §1

[5] = tested on: Escherichia coli LA290 R55; assay: MIC by serial dilution method on nutrient agar; details: LA290R55
Description: as §1

[6] = tested on: Escherichia coli LA290 R56; assay: MIC by serial dilution method on nutrient agar; details: LA290R56
Description: as §1

[7] = tested on: Escherichia coli LA290 R64; assay: MIC by serial dilution method on nutrient agar; details: LA290R64
Description: as §1

Escherichia coli W677 = assay: MIC by serial dilution method on nutrient agar; details: 37° C
Description: as §1

[8] = tested on: Klebsiella pneumoniae 22#3038; assay: MIC by serial dilution method on nutrient agar; details: for MIC: nutrient agar, 37° C
Description: as §1

[9] = tested on: Klebsiella pneumoniae PCI 602; assay: MIC by serial dilution method on nutrient agar; details: PCI602, 37° C
Description: as §1

[10] = tested on: Mycobacterium smegmatis ATCC607; assay: MIC by serial dilution method on nutrient agar; details: Mycolicibacterium smegmatis, 37° C
Description: as §1

[11] = tested on: Pseudomonas aeruginosa 99; assay: MIC by serial dilution method on nutrient agar; details: 37° C
Description: as §1

[12] = tested on: Pseudomonas aeruginosa A3; assay: MIC by serial dilution method on nutrient agar; details: 37° C
Description: as §1

[13] = tested on: Pseudomonas aeruginosa GN315; assay: MIC by serial dilution method on nutrient agar; details: for MIC: nutrient agar, 37° C
Description: as §1

[14] = tested on: Pseudomonas aeruginosa No. 12; assay: MIC by serial dilution method on nutrient agar; details: 37° C
Description: as §1

[15] = tested on: Pseudomonas aeruginosa TI-13; assay: MIC by serial dilution method on nutrient agar; details: for MIC: TI13, nutrient agar, 37° C
Description: as §1

[16] = tested on: Staphylococcus aureus FDA209P; assay: MIC by serial dilution method on nutrient agar; details: 37° C
Description: as §1

[17] = tested on: some strains of gram-negative bacteria carrying R factor Staphylococcus aureus and Pseudomonas aeruginosa; assay: resistance of strains isolated from patients

| SMILES | MIC [1] [µg/mL] | MIC [2] [µg/mL] | MIC [3] [µg/mL] | MIC [4] [µg/mL] | MIC (Escherichia coli K-12 R5) [µg/mL] | MIC (Escherichia coli K-12) [µg/mL] | MIC [5] [µg/mL] | MIC [6] [µg/mL] | MIC [7] [µg/mL] | MIC (Escherichia coli W677) [µg/mL] | MIC [8] [µg/mL] | MIC [9] [µg/mL] | MIC [10] [µg/mL] | MIC [11] [µg/mL] | MIC [12] [µg/mL] | MIC [13] [µg/mL] | MIC [14] [µg/mL] | MIC [15] [µg/mL] | MIC [16] [µg/mL] | also measured |
| --- | --- | --- | --- | --- | --- | --- | --- | --- | --- | --- | --- | --- | --- | --- | --- | --- | --- | --- | --- | --- |
| CCNC[C@H]1O[C@H](O[C@H]2[C@H](O)[C@@H](O[C@H]3O[C@H](CO)[C@@H](O)[C@H](N)[C@H]3O)[C@H](NC(=O)[C@@H](O)CCN)C[C@@H]2N)[C@H](O)[C@@H](O)[C@@H]1O [1-AHB-6'-EKM, 1-N-(L-4-amino-2-hydroxybutyryl)-6'-N-ethylkanamycin] | 25 (≈ 40.7 µM) | 3.12 (≈ 5.08 µM) | 3.12 (≈ 5.08 µM) | 6.25 (≈ 10.2 µM) | 1.56 (≈ 2.54 µM) | 1.56 (≈ 2.54 µM) | 3.12 (≈ 5.08 µM) | 1.56 (≈ 2.54 µM) | 1.56 (≈ 2.54 µM) | 1.56 (≈ 2.54 µM) | 25 (≈ 40.7 µM) | 1.56 (≈ 2.54 µM) | 3.12 (≈ 5.08 µM) | 100 (≈ 163 µM) | 25 (≈ 40.7 µM) | 100 (≈ 163 µM) | 25 (≈ 40.7 µM) | 50 (≈ 81.5 µM) | 1.56 (≈ 2.54 µM) | – |
| CNC[C@H]1O[C@H](O[C@H]2[C@H](O)[C@@H](O[C@H]3O[C@H](CO)[C@@H](O)[C@H](N)[C@H]3O)[C@H](NC(=O)[C@@H](O)CCN)C[C@@H]2N)[C@H](O)[C@@H](O)[C@@H]1O [1-AHB-6'-MKM, 1-N-(L-4-amino-2-hydroxybutyryl)-6'-N-methylkanamycin] | 6.25 (≈ 10.4 µM) | 1.56 (≈ 2.6 µM) | 0.78 (≈ 1.3 µM) | 1.56 (≈ 2.6 µM) | 0.78 (≈ 1.3 µM) | 0.39 (≈ 0.65 µM) | 1.56 (≈ 2.6 µM) | 0.78 (≈ 1.3 µM) | 0.78 (≈ 1.3 µM) | 1.56 (≈ 2.6 µM) | 6.25 (≈ 10.4 µM) | 0.78 (≈ 1.3 µM) | 0.39 (≈ 0.65 µM) | 12.5 (≈ 20.8 µM) | 6.25 (≈ 10.4 µM) | 50 (≈ 83.4 µM) | 3.12 (≈ 5.2 µM) | 12.5 (≈ 20.8 µM) | 0.78 (≈ 1.3 µM) | – |
| CNC[C@H]1O[C@H](O[C@H]2[C@H](O)[C@@H](O[C@H]3O[C@H](CO)[C@@H](O)[C@H](N)[C@H]3O)[C@H](N)C[C@@H]2N)[C@H](O)[C@@H](O)[C@@H]1O [6'-N-methylkanamycin, reference compound] | – | – | – | – | – | – | – | – | – | – | – | – | – | – | – | – | – | – | – | inhibition of kanamycin-resistant strain [1]: does not inhibit; inhibition of kanamycin-resistant strain [3]: does not inhibit; inhibition of kanamycin-resistant strain [4]: does not inhibit; inhibition of kanamycin-resistant strain [8]: does not inhibit; inhibition of kanamycin-resistant strain [13]: does not inhibit; inhibition of kanamycin-resistant strain [15]: does not inhibit |
| NC[C@H]1O[C@H](O[C@H]2[C@H](O)[C@@H](O[C@H]3O[C@H](CO)[C@@H](O)[C@H](N)[C@H]3O)[C@H](N)C[C@@H]2N)[C@H](O)[C@@H](O)[C@@H]1O [kanamycin] | – | – | – | – | – | – | – | – | – | – | – | – | – | – | – | – | – | – | – | resistance of strains [17]: resistant |
